According to paper PMC11788587, “Validating Low‐Dose Iohexol as a Marker for Glomerular Filtration Rate by In Vitro and In Vivo Studies” (Clinical and Translational Science, 2025):

How the values were obtained:
hMDR1 = molecular target: T1, hMDR1 (Homo sapiens, UniProt P08183); experiment: Inhibition of hMDR1-mediated 3H-NMQ uptake, inside-out membrane vesicles; assay type: biochemical; conditions: substrate 0.01 µM 3H-NMQ, median (95% CI)
T1 construct: purchased Pharm Tox, Netherlands; host or cells: HEK293 cells (membrane vesicles)
T1 sequence (P08183 whole entry): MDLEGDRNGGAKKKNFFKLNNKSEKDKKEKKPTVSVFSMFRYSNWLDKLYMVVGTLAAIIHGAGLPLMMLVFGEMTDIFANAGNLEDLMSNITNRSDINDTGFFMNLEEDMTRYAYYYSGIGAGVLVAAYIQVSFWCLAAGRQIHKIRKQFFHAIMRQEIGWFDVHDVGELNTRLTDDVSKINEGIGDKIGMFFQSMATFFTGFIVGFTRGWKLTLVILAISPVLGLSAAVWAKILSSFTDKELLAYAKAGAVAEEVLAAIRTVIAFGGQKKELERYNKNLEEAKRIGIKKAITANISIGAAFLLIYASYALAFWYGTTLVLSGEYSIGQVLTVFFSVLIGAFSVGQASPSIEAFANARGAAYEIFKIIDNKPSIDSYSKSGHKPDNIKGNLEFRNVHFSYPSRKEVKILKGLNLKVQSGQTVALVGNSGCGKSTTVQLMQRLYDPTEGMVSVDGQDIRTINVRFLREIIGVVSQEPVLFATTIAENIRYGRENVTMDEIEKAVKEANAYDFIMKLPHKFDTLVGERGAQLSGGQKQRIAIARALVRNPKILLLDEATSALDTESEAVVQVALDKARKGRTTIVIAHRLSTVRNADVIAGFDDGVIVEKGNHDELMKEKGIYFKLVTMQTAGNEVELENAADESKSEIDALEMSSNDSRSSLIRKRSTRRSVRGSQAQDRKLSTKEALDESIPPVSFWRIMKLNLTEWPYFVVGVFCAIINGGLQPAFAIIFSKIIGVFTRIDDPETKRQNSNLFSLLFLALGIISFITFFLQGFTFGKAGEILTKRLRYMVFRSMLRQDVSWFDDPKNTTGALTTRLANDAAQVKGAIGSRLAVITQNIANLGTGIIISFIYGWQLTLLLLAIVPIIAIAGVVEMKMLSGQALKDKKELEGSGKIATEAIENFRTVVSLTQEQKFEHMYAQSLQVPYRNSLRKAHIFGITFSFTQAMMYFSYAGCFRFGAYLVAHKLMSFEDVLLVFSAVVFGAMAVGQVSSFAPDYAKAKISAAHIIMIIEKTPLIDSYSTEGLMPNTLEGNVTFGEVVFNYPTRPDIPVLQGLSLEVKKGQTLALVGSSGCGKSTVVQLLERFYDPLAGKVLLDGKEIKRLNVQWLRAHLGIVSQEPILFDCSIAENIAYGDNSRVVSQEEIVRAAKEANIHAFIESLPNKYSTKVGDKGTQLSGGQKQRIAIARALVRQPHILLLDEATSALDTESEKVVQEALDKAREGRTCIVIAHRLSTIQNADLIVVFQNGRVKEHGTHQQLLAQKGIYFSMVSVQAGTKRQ
From the text: (§1) We characterized the inhibitory potential of iohexol on major drug transporters recommended by regulatory agencies, which were previously assessed in a clinical transporter phenotyping cocktail study. These transporters include hOAT1, hOAT3, hOCT1, hOCT2, hMATE1, hMATE2K, human organic anion transporter polypeptides (hOATP)1B1, hOATP1B3, and human multidrug resistance protein (hMDR)1. Additionally, we investigated whether iohexol is a substrate for any of the renal transporters among these, including hOAT1/3, hOCT1/2, and hMATE1/2K. Cell‐based uptake assays were used to assess the activities of hOAT1/3, hOCT1/2, hMATE1/2K, and hOATP1B1/1B3. Inside‐out membrane vesicle uptake assays were used to evaluate the activity of hMDR1.
(§2) To determine the maximal inhibitory potential of iohexol, intracellular accumulation of a standard substrate was measured with and without the clinically relevant highest concentrations of iohexol. Control inhibitors were tested in each experiment.
(§3) In all subsequent in vitro studies, control experiments were conducted to validate the results. […] Each condition, including cells or vesicles with the transporter and their respective controls, was analyzed in at least three replicates. […]
R version 4.2.1 (R Foundation for Statistical Computing, Vienna, Austria) was used for statistical evaluations and data visualization. The data analysis approach for the in vitro study was detailed by Hsin CH et al..^1 In brief, for transport assays, the initial uptake rate was calculated by normalizing the substrate concentration to both the protein concentration and the incubation time for each dish or well. The transporter-mediated uptake rate (net uptake) was determined by performing an element-wise subtraction of uptake rates from different conditions. […] Net uptake rates were determined by subtracting the uptake rate of the control cells or vesicles from that of the transporter-expressing cells or vesicles for each pair. […]

[1] = tested on: hOAT1/3, hOCT1/2, hMATE1/2K, hOATP1B1/3, and hMDR1; experiment: Inhibition assays, summary across all transporters; assay type: cell-based, human
From the text: as §1, §2
According to guidelines for assessing TDDIs after intravenous administration, the highest test concentration should be up to 50 times the unbound maximal plasma concentration (Cmax). […]
as §3

P‐glycoprotein = tested on: P‐glycoprotein; parameters: method as in ref 16 Supawat et al.; conditions: human cancer cell lines; not statistically significant; ref 16 Supawat et al.; cited from earlier work
[2] = parameters: method as in PMID 32989831, PMID 30449032; conditions: cited from earlier work

SMILES: CC(=O)N(CC(O)CO)c1c(I)c(C(=O)NCC(O)CO)c(I)c(C(=O)NCC(O)CO)c1I (stereo not shown) [iohexol]
- Inhibitory effect (% reduction of specific activity) (hMDR1; 20 mM iohexol): < 30%
- inhibition at 1 min, 2 mM (hMDR1; human, probe 3H-NMQ (N-methyl-quinidine), 0.01 µM, 2 mM iohexol, read-out: Inhibitory effect (% reduction of specific activity)): -4.9%
- inhibition at 1 min, 20 mM (hMDR1; human, probe 3H-NMQ (N-methyl-quinidine), 0.01 µM, 20 mM iohexol, read-out: Inhibitory effect (% reduction of specific activity)): 21%
- Inhibitor of the transporters (conclusion) ([1]; in vitro, 1–20 mM iohexol): neither a substrate nor a significant inhibitor
- Inhibitory effect on transporter-mediated uptake of standard substrates ([1]; iohexol 1 mM and 2 mM): no significant inhibitory effect
- Inhibitory effect on P-glycoprotein (P‐glycoprotein): mild inhibitory effect
- Iohexol clearance under OCT2 and MATE inhibitors [2]: unaffected
